# Assay results as given in patent US20240158412A1 (Faxian Therapeutics, LLC, priority 2021, published 2024).
# pIC50: −log10 of the molar value.
# Target: USP7 (Homo sapiens, UniProt Q93009)
# Assay: biochemical
# Experimental: Example A. Biochemical Assay of USP7 Inhibitor Potency (IC50)
# Fluorescence intensity assay of USP7 activity in the presence USP7 inhibitors. Recombinant USP7 protein (catalogue number E-519) and the fluorescence substrate ubiquitin-rhodamine 110 (Rh110) (catalogue number U-555) were purchased from Boston Biochem (840 Memorial Drive, Cambridge, MA 02139). The reaction was carried out in buffer 20 mM HEPES, pH 7.3, 150 mM NaCl, 1 mM TCEP, 125 μg/mL BSA at room temperature in a black 384-well Microplate (Greiner, catalog number 781076).
# Test compounds were dissolved in DMSO to make 50 mM stock solution. […] In wells of a black 384-well Microplate, 15 μl of 100 pM of USP7 enzyme was added to each well with pre-diluted compounds and incubated at room temperature for 30 minutes, followed by addition of 10 μl of ubiquitin-rhodamine 110 (Rh110) substrate to reach 160 nM final concentration. The reaction mixtures were incubated for additional 90 minutes at room temperature. The fluorescence signal of the digested substrate was measured on an EnVision microplate reader (PerkinElmer,), using excitation at 485 nm and emission at 535 nm. The IC50 values were calculated using XLfit software.
# 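Also: fluorescence intensity readout of USP7 enzymatic activity, reaction incubated 90 min at room temperature.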
# USP7, sequence (Q93009 whole entry): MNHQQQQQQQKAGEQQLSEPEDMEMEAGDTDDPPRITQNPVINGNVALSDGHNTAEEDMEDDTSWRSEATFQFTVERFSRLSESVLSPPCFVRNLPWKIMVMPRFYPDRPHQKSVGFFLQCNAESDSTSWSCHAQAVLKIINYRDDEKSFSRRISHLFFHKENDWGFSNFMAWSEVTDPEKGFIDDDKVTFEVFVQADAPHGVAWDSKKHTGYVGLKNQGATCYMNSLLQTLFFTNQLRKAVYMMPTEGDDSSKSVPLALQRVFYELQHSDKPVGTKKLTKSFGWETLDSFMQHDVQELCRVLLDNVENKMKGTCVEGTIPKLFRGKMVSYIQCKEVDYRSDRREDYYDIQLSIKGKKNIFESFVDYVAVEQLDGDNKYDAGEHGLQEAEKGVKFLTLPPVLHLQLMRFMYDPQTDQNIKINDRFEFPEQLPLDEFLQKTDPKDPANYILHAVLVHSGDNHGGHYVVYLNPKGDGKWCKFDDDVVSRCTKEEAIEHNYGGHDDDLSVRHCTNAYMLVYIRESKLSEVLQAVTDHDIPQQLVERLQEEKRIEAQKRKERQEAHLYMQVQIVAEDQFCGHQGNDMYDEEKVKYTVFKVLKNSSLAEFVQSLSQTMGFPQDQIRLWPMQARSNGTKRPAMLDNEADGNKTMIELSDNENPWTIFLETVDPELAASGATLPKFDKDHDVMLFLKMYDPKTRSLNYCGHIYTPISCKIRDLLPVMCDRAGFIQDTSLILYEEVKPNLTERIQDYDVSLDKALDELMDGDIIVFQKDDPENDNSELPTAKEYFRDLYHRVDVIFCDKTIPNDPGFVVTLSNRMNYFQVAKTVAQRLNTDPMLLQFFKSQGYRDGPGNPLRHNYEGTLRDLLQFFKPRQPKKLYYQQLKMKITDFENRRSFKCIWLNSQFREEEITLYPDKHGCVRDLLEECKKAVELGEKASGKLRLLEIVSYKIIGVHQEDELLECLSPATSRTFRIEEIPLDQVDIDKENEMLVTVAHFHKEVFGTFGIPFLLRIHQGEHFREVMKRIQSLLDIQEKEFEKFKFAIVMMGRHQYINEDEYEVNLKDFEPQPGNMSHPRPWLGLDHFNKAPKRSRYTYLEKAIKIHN
row,Structure (SMILES),pIC50
1,"CC(F)(F)CCn1ccc(=O)n(Cc2cc3nccc(-c4cc(Cl)cc5c4N([C@H]4CCNC4)CCC5)c3s2)c1=O [Example 104, (S)-3-((7-(6-chloro-1-(pyrrolidin-3-yl)-1,2,3,4-tetrahydroquinolin-8-yl)thieno[3,2-b]pyridin-2-yl)methyl)-1-(3,3-difluorobutyl)pyrimidine-2,4(1H,3H)-dione]",> 8.00
2,"O=c1cc(CC(F)F)cnn1Cc1cc2nccc(-c3cc(Cl)cc4c3N([C@H]3CCNC3)CCC4)c2s1 [Example 105, (S)-2-((7-(6-chloro-1-(pyrrolidin-3-yl)-1,2,3,4-tetrahydroquinolin-8-yl)thieno[3,2-b]pyridin-2-yl)methyl)-5-(2,2-difluoroethyl)pyridazin-3(2H)-one]",> 8.00
3,"O=c1cc2n(c(=O)n1Cc1cc3nccc(-c4cc(Cl)cc5c4N([C@H]4CCNC4)CCC5)c3s1)CCC2 [Example 106, (S)-2-((7-(6-chloro-1-(pyrrolidin-3-yl)-1,2,3,4-tetrahydroquinolin-8-yl)thieno[3,2-b]pyridin-2-yl)methyl)-6,7-dihydropyrrolo[1,2-c]pyrimidine-1,3(2H,5H)-dione]",> 8.00
4,"O=C1CCC(=O)N1Cc1cc2ncc(F)c(-c3cc(Cl)cc4c3N([C@H]3CCNC3)CCC4)c2s1 [Example 109, 1-((7-(6-chloro-1-((S)-pyrrolidin-3-yl)-1,2,3,4-tetrahydroquinolin-8-yl)-6-fluorothieno[3,2-b]pyridin-2-yl)methyl)pyrrolidine-2,5-dione]",> 8.00
5,O=C1CCC(=O)N1C1(c2cc3nccc(-c4cc(Cl)cc5c4N([C@H]4CCNC4)CCC5)c3s2)CC1 [Example 110],6.00 to 7.00
6,"O=c1ccn(CC(F)(F)F)c(=O)n1Cc1cc2nccc(-c3cc(Cl)cc4c3N([C@H]3CCNC3)C[C@H]3C[C@@H]43)c2s1 [Example 114, 3-((7-((1aS,7bR)-6-chloro-3-((S)-pyrrolidin-3-yl)-1a,2,3,7b-tetrahydro-1H-cyclopropa[c]quinolin-4-yl)thieno[3,2-b]pyridin-2-yl)methyl)-1-(2,2,2-trifluoroethyl)pyrimidine-2,4(1H,3H)-dione]",> 8.00
7,"Cc1cc(-c2cc(Cl)cc3c2N([C@H]2CCNC2)CCC3)c2sc(CN3C(=O)CCC3=O)cc2n1 [Example 116, (S)-1-((7-(6-chloro-1-(pyrrolidin-3-yl)-1,2,3,4-tetrahydroquinolin-8-yl)-5-methylthieno[3,2-b]pyridin-2-yl)methyl)pyrrolidine-2,5-dione]",6.00 to 7.00
8,"N#Cc1cc(-c2ccnc3cc(Cn4c(=O)ccn(CC(F)F)c4=O)sc23)c2c(c1)[C@H]1C[C@H]1CN2[C@@H]1CCNC1 [Example 117a, (1aR,7bS)-4-(2-((3-(2,2-difluoroethyl)-2,6-dioxo-3,6-dihydropyrimidin-1(2H)-yl)methyl)thieno[3,2-b]pyridin-7-yl)-3-((R)-pyrrolidin-3-yl)-1a,2,3,7b-tetrahydro-1H-cyclopropa[c]quinoline-6-carbonitrile]",6.00 to 7.00
9,"N#Cc1cc(-c2ccnc3cc(Cn4c(=O)ccn(CC(F)F)c4=O)sc23)c2c(c1)[C@@H]1C[C@@H]1CN2[C@@H]1CCNC1 [Example 117b, (1aS,7bR)-4-(2-((3-(2,2-difluoroethyl)-2,6-dioxo-2,3-dihydropyrimidin-1(6H)-yl)methyl)thieno[3,2-b]pyridin-7-yl)-3-((R)-pyrrolidin-3-yl)-1a,2,3,7b-tetrahydro-1H-cyclopropa[c]quinoline-6-carbonitrile]",7.00 to 8.00
10,"N#Cc1cc(-c2ccnc3cc(Cn4c(=O)ccn(CC(F)F)c4=O)sc23)c2c(c1)[C@H]1C[C@H]1CN2[C@H]1CCNC1 [Example 117c, (1aR,7bS)-4-(2-((3-(2,2-difluoroethyl)-2,6-dioxo-3,6-dihydropyrimidin-1(2H)-yl)methyl)thieno[3,2-b]pyridin-7-yl)-3-((S)-pyrrolidin-3-yl)-1a,2,3,7b-tetrahydro-1H-cyclopropa[c]quinoline-6-carbonitrile]",7.00 to 8.00
11,"N#Cc1cc(-c2ccnc3cc(Cn4c(=O)ccn(CC(F)F)c4=O)sc23)c2c(c1)[C@@H]1C[C@@H]1CN2[C@H]1CCNC1 [Example 117d, (1aS,7bR)-4-[2-[[3-(2,2-difluoroethyl)-2,6-dioxo-pyrimidin-1-yl]methyl]thieno[3,2-b]pyridin-7-yl]-3-[(3S)-pyrrolidin-3-yl]-1,1a,2,7b-tetrahydrocyclopropa[c]quinoline-6-carbonitrile]",> 8.00
12,"CC1(C)C[C@H](N2CCCc3cc(Cl)cc(-c4ccnc5cc(CN6C(=O)CCC6=O)sc45)c32)CN1 [Example 119, (S)-1-((7-(6-chloro-1-(5,5-dimethylpyrrolidin-3-yl)-1,2,3,4-tetrahydroquinolin-8-yl)thieno[3,2-b]pyridin-2-yl)methyl)pyrrolidine-2,5-dione]",> 8.00
13,"Cc1cnn(Cc2cc3nccc(-c4cc(C#N)cc5c4N([C@@H]4CN(C)C(C)(C)C4)CCC5)c3s2)c(=O)c1 [Example 122, (S)-8-(2-((4-methyl-6-oxopyridazin-1(6H)-yl)methyl)thieno[3,2-b]pyridin-7-yl)-1-(1,5,5-trimethylpyrrolidin-3-yl)-1,2,3,4-tetrahydroquinoline-6-carbonitrile]",> 8.00
14,"CN1C[C@@H](N2CCCc3cc(C#N)cc(-c4ccnc5cc(Cn6c(=O)ccn(C)c6=O)sc45)c32)CC1(C)C [Example 123, (S)-8-(2-((3-methyl-2,6-dioxo-2,3-dihydropyrimidin-1(6H)-yl)methyl)thieno[3,2-b]pyridin-7-yl)-1-(1,5,5-trimethylpyrrolidin-3-yl)-1,2,3,4-tetrahydroquinoline-6-carbonitrile]",> 8.00
15,"CC1(C)C[C@H](N2CCCc3cc(C#N)cc(-c4ccnc5cc(CN6C(=O)C7CC7C6=O)sc45)c32)CN1 (stereo partly drawn) [Example 124, 1-((S)-5,5-dimethylpyrrolidin-3-yl)-8-(2-((2,4-dioxo-3-azabicyclo[3.1.0]hexan-3-yl)methyl)thieno[3,2-b]pyridin-7-yl)-1,2,3,4-tetrahydroquinoline-6-carbonitrile]",> 8.00
16,"CC1(C)C[C@H](N2CCCc3cc(C#N)cc(-c4ccnc5cc(Cn6c(=O)ccn(CC(F)(F)F)c6=O)sc45)c32)CN1 [Example 125, (S)-1-(5,5-dimethylpyrrolidin-3-yl)-8-(2-((2,6-dioxo-3-(2,2,2-trifluoroethyl)-2,3-dihydropyrimidin-1(6H)-yl)methyl)thieno[3,2-b]pyridin-7-yl)-1,2,3,4-tetrahydroquinoline-6-carbonitrile]",> 8.00
17,"CCn1c(N(C)C)cc(=O)n(Cc2cc3nccc(-c4cc(C#N)cc5c4N([C@@H]4CNC(C)(C)C4)CCC5)c3s2)c1=O [Example 126, (S)-8-(2-((4-(dimethylamino)-3-ethyl-2,6-dioxo-2,3-dihydropyrimidin-1(6H)-yl)methyl)thieno[3,2-b]pyridin-7-yl)-1-(5,5-dimethylpyrrolidin-3-yl)-1,2,3,4-tetrahydroquinoline-6-carbonitrile]",> 8.00
18,"CC1(C)C[C@H](N2CCCc3cc(C#N)cc(-c4ccnc5cc(CN6C(=O)CN(C7CC(F)(F)C7)C6=O)sc45)c32)CN1 [Example 127, (S)-8-(2-((3-(3,3-difluorocyclobutyl)-2,5-dioxoimidazolidin-1-yl)methyl)thieno[3,2-b]pyridin-7-yl)-1-(5,5-dimethylpyrrolidin-3-yl)-1,2,3,4-tetrahydroquinoline-6-carbonitrile]",> 8.00
19,"CC1(C)C[C@H](N2CCCc3cc(C#N)cc(-c4ccnc5cc(Cn6ncc(C7CC7)cc6=O)sc45)c32)CN1 [Example 128, (S)-8-(2-((4-cyclopropyl-6-oxopyridazin-1(6H)-yl)methyl)thieno[3,2-b]pyridin-7-yl)-1-(5,5-dimethylpyrrolidin-3-yl)-1,2,3,4-tetrahydroquinoline-6-carbonitrile]",> 8.00
20,"CC(C)c1cnn(Cc2cc3nccc(-c4cc(C#N)cc5c4N([C@@H]4CNC(C)(C)C4)CCC5)c3s2)c(=O)c1 [Example 129, (S)-1-(5,5-dimethylpyrrolidin-3-yl)-8-(2-((4-isopropyl-6-oxopyridazin-1(6H)-yl)methyl)thieno[3,2-b]pyridin-7-yl)-1,2,3,4-tetrahydroquinoline-6-carbonitrile]",> 8.00
21,"CC1(C)C[C@H](N2CCCc3cc(C#N)cc(-c4ccnc5cc(CN6C(=O)CCCC6=O)sc45)c32)CN1 [Example 130, (S)-1-(5,5-dimethylpyrrolidin-3-yl)-8-(2-((2,6-dioxopiperidin-1-yl)methyl)thieno[3,2-b]pyridin-7-yl)-1,2,3,4-tetrahydroquinoline-6-carbonitrile]",> 8.00
22,"CC1(C)C[C@H](N2CCCc3cc(C#N)cc(-c4ccnc5cc(CN6C(=O)CN(C7CC7)C6=O)sc45)c32)CN1 [Example 131, (S)-8-(2-((3-cyclopropyl-2,5-dioxoimidazolidin-1-yl)methyl)thieno[3,2-b]pyridin-7-yl)-1-(5,5-dimethylpyrrolidin-3-yl)-1,2,3,4-tetrahydroquinoline-6-carbonitrile]",> 8.00
23,"Cc1cnn(Cc2cc3nccc(-c4cc(C#N)cc5c4N([C@@H]4CNC(C)(C)C4)CCO5)c3s2)c(=O)c1 [Example 134, (S)-4-(5,5-dimethylpyrrolidin-3-yl)-5-(2-((4-methyl-6-oxopyridazin-1(6H)-yl)methyl)thieno[3,2-b]pyridin-7-yl)-3,4-dihydro-2H-benzo[b][1,4]oxazine-7-carbonitrile]",> 8.00
24,"CC1(C)C[C@H](N2CCOc3cc(C#N)cc(-c4ccnc5cc(Cn6ncc(C7CC7)cc6=O)sc45)c32)CN1 [Example 135, (S)-5-(2-((4-cyclopropyl-6-oxopyridazin-1(6H)-yl)methyl)thieno[3,2-b]pyridin-7-yl)-4-(5,5-dimethylpyrrolidin-3-yl)-3,4-dihydro-2H-benzo[b][1,4]oxazine-7-carbonitrile]",> 8.00
25,"CC1(C)C[C@H](N2CCOc3cc(C#N)cc(-c4ccnc5cc(Cn6ncc(C(C)(C)C)cc6=O)sc45)c32)CN1 [Example 136, (S)-5-(2-((4-(tert-butyl)-6-oxopyridazin-1(6H)-yl)methyl)thieno[3,2-b]pyridin-7-yl)-4-(5,5-dimethylpyrrolidin-3-yl)-3,4-dihydro-2H-benzo[b][1,4]oxazine-7-carbonitrile]",> 8.00
26,"O=C1CCC(=O)N1Cc1cc2nccc(-c3cc(Cl)cc4c3N(C3CC5(CNC5)C3)CCC4)c2s1 [Example 137, 1-[[7-[1-(2-azaspiro[3.3]heptan-6-yl)-6-chloro-3,4-dihydro-2H-quinolin-8-yl]thieno[3,2-b]pyridin-2-yl]methyl]pyrrolidine-2,5-dione]",7.00 to 8.00
